Laboratory results reported in US6355799B1, “Substituted benzene compounds, process for their preparation, and herbicidal and defoliant compositions containing them” (ISK Americas Incorporated, priority 1997, dated 2002).

Experiments:
Format in all cases: in vivo
[1] = system: barnyardgrass (Echinochloa crus-galli, ECHCG); experiment: Post-emerge test, greenhouse herbicide activity screening; settings: post-emerge, 14 days after application, rating scale 0-100
Method in brief: (§1)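 Compounds in acetone were track-sprayed at 15-1000 g ai/ha (187 l/ha) on sandy loam pots: pre-emerge one day after seeding, post-emerge at 2-3 leaf stage with 0.25% v/v non-ionic surfactant. Phytotoxicity was rated 14 days later on a 0 (no damage) to 100 (complete death) scale.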

[2] = system: large crabgrass (Digitaria sanguinalis, DIGSA); experiment: as above; settings: post-emerge, 14 days after application, rating scale 0-100
Method in brief: as §1

[3] = system: velvetleaf (Abutilon theophrasti, ABUTH); experiment: as above; settings: post-emerge, 14 days after application, rating scale 0-100
Method in brief: as §1

[4] = system: sicklepod (Cassia obtusifolia, CASOB); experiment: as above; settings: post-emerge, 14 days after application, rating scale 0-100
Method in brief: as §1

[5] = system: lambsquarters (Chenopodium album, CHEAL); experiment: as above; settings: post-emerge, 14 days after application, rating scale 0-100
Method in brief: as §1

[6] = system: johnsongrass (Sorghum halepense, SORHA); experiment: as above; settings: post-emerge, 14 days after application, rating scale 0-100
Method in brief: as §1

[7] = system: redroot pigweed (Amaranthus retroflexus, AMARE); experiment: as above; settings: post-emerge, 14 days after application
Method in brief: as §1

[8] = system: ivyleaf morningglory (Ipomoea hederacea, IPOHE); experiment: as above; settings: post-emerge, 14 days after application, rating scale 0-100
Method in brief: as §1

[9] = system: green foxtail (Setaria viridis, SETVI); experiment: as above; settings: post-emerge, 14 days after application, rating scale 0-100
Method in brief: as §1

[10] = system: field corn (Zea mays L., var. Dekalb 535, CORN); experiment: Post-emerge test, crop safety; settings: post-emerge, 14 days after application, rating scale 0-100
Method in brief: (§2)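 Sandy loam pots; pre-emerge: sown 1 d pre-spray, surface-watered after, then bottom-watered. Post-emerge: sown 8–21 d before, 2–3 leaf stage, + 0.25% v/v NIS, bottom-watered. Acetone, 187 l/ha track spray, 15–1000 g ai/ha. 0–100 injury score, day 14.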

[11] = system: upland rice (Oryza sp., var. Tebonnet, RICE); experiment: Post-emerge test, crop safety; settings: post-emerge, 14 days after application, rating scale 0-100
Method in brief: as §2

[12] = system: redroot pigweed (Amaranthus retroflexus, AMARE); experiment: Pre-emerge test, greenhouse herbicide activity screening; settings: phytotoxicity rating 0-100, 14 days after application
Method in brief: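 Rating: 0–100 visual injury, 14 DAA. Application: acetone, 187 l/ha, 15–1000 g ai/ha, flat-fan track sprayer with nozzle 40–45 cm above soil or canopy. Post-emerge runs used 0.25% v/v surfactant on 2–3 leaf plants.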

[13] = system: field corn (Zea mays L., var. Dekalb 535, CORN); experiment: Pre-emerge test, crop safety; settings: crop damage rating 0-100, 14 days after application
Method in brief: (§3)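 Plants grown in 10 cm pots of sandy loam mix received acetone-dissolved compounds through a moving flat-fan nozzle. Doses ranged from 15 to 1000 g ai/ha. Pre-emerge pots were seeded one day earlier, post-emerge pots 8–21 days earlier. Fourteen days on, each pot was graded 0–100 for damage.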

[14] = system: upland rice (Oryza sp., var. Tebonnet, RICE); experiment: Pre-emerge test, crop safety; settings: crop damage rating 0-100, 14 days after application
Method in brief: as §3

[15] = system: barnyardgrass (Echinochloa crus-galli, ECHCG); experiment: Pre-emerge test, greenhouse herbicide activity screening; settings: phytotoxicity rating 0-100, 14 days after application
Method in brief: as §2

[16] = system: large crabgrass (Digitaria sanguinalis, DIGSA); experiment: as above; settings: phytotoxicity rating 0-100, 14 days after application
Method in brief: as §2

[17] = system: velvetleaf (Abutilon theophrasti, ABUTH); experiment: as above; settings: phytotoxicity rating 0-100, 14 days after application
Method in brief: as §2

[18] = system: sicklepod (Cassia obtusifolia, CASOB); experiment: as above; settings: phytotoxicity rating 0-100, 14 days after application
Method in brief: as §2

[19] = system: lambsquarters (Chenopodium album, CHEAL); experiment: as above; settings: phytotoxicity rating 0-100, 14 days after application
Method in brief: as §2

[20] = system: ivyleaf morningglory (Ipomoea hederacea, IPOHE); experiment: as above; settings: phytotoxicity rating 0-100, 14 days after application
Method in brief: as §2

[21] = system: green foxtail (Setaria viridis, SETVI); experiment: as above; settings: phytotoxicity rating 0-100, 14 days after application
Method in brief: as §2

## COc1c(Cl)cc(F)c(-n2c(=O)cc(C(F)(F)F)n(C)c2=O)c1NC(=O)OCc1cc(C)cc(C)c1 [4-37]
[1]; 63 g ai/ha
  phytotoxicity rating ECHCG: 20
[1]; 250 g ai/ha
  phytotoxicity rating ECHCG: 60
[2]; 63 g ai/ha
  phytotoxicity rating DIGSA: 50
[2]; 250 g ai/ha
  phytotoxicity rating DIGSA: 70
[3]; 63 g ai/ha
  phytotoxicity rating ABUTH: 100
[3]; 250 g ai/ha
  phytotoxicity rating ABUTH: 100
[4]; 63 g ai/ha
  phytotoxicity rating CASOB: 90
[4]; 250 g ai/ha
  phytotoxicity rating CASOB: 100
[5]; 63 g ai/ha
  phytotoxicity rating CHEAL: 100
[5]; 250 g ai/ha
  phytotoxicity rating CHEAL: 100
[6]; 63 g ai/ha
  phytotoxicity rating SORHA: 40
[6]; 250 g ai/ha
  phytotoxicity rating SORHA: 60
[7]; 63 g ai/ha, rating scale 0-100 (0 no damage, 100 complete death)
  phytotoxicity rating AMARE: 100
[7]; 250 g ai/ha, rating scale 0-100
  phytotoxicity rating AMARE: 100
[8]; 63 g ai/ha
  phytotoxicity rating IPOHE: 100
[8]; 250 g ai/ha
  phytotoxicity rating IPOHE: 100
[9]; 63 g ai/ha
  phytotoxicity rating SETVI: 90
[9]; 250 g ai/ha
  phytotoxicity rating SETVI: 90
[10]; 63 g ai/ha
  phytotoxicity rating CORN (crop damage): 20
[10]; 250 g ai/ha
  phytotoxicity rating CORN (crop damage): 60
[11]; 63 g ai/ha
  phytotoxicity rating RICE (crop damage): 10
[11]; 250 g ai/ha
  phytotoxicity rating RICE (crop damage): 60
[12]; 63 g ai/ha
  Pre-emerge Herbicidal Activity AMARE: 100
[12]; 250 g ai/ha
  Pre-emerge Herbicidal Activity AMARE: 100
[13]; 63 g ai/ha
  Pre-emerge Herbicidal Activity CORN: 0
[13]; 250 g ai/ha
  Pre-emerge Herbicidal Activity CORN: 0
[14]; 63 g ai/ha
  Pre-emerge Herbicidal Activity RICE: 10
[14]; 250 g ai/ha
  Pre-emerge Herbicidal Activity RICE: 30
[15]; 63 g ai/ha
  Pre-emerge Herbicidal Activity ECHCG: 10
[15]; 250 g ai/ha
  Pre-emerge Herbicidal Activity ECHCG: 60
[16]; 63 g ai/ha
  Pre-emerge Herbicidal Activity DIGSA: 60
[16]; 250 g ai/ha
  Pre-emerge Herbicidal Activity DIGSA: 90
[17]; 63 g ai/ha
  Pre-emerge Herbicidal Activity ABUTH: 100
[17]; 250 g ai/ha
  Pre-emerge Herbicidal Activity ABUTH: 90
[18]; 63 g ai/ha
  Pre-emerge Herbicidal Activity CASOB: 30
[18]; 250 g ai/ha
  Pre-emerge Herbicidal Activity CASOB: 40
[19]; 63 g ai/ha
  Pre-emerge Herbicidal Activity CHEAL: 100
[19]; 250 g ai/ha
  Pre-emerge Herbicidal Activity CHEAL: 100
[20]; 63 g ai/ha
  Pre-emerge Herbicidal Activity IPOHE: 30
[20]; 250 g ai/ha
  Pre-emerge Herbicidal Activity IPOHE: 50
[21]; 63 g ai/ha
  Pre-emerge Herbicidal Activity SETVI: 90
[21]; 250 g ai/ha
  Pre-emerge Herbicidal Activity SETVI: 100
